# Measurements taken from patent publication US9044485B2, “Ceftolozane antibiotic compositions” (priority 2013, dated 2015).
# Key:
# [1] = Intrinsic pH of ceftolozane in solution; type: physicochemical; conditions: in solution (2%)
# P. aeruginosa = test: Minimum inhibitory concentration (MIC90); type: cell-based; conditions: Pseudomonas aeruginosa
# Enterobacteriaceae = test: In vitro activity against Gram-positive and Gram-negative bacteria (surveillance data); type: cell-based; conditions: against Acinetobacter spp. and common species of Enterobacteriaceae
# Method: The in vitro activity of ceftolozane and ceftolozane/tazobactam was evaluated against a broad range of Gram-positive and Gram-negative bacteria.
SMILES,intrinsic pH [1],MIC90 (P. aeruginosa) [µg/mL],effect on in vitro activity of ceftolozane (in words) (Enterobacteriaceae)
"Cn1c(N)c(NC(=O)NCCN)c[n+]1CC1=C(C(=O)O)N2C(=O)[C@@H](NC(=O)/C(=N\OC(C)(C)C(=O)O)c3nsc(N)n3)[C@H]2SC1 [ceftolozane, (6R,7R)-3-[(5-amino-4-{[(2-aminoethyl)carbamoyl]amino}-1-methyl-1H-pyrazol-2-ium-2-yl)methyl]-7-({(2Z)-2-(5-amino-1,2,4-thiadiazol-3-yl)-2-[(1-carboxy-1-methylethoxy)imino]acetyl}amino)-8-oxo-5-thia-1-azabicyclo[4.2.0]oct-2-ene-2-carboxylate]",1.92,≤ 2,–
"C[C@]1(Cn2ccnn2)[C@H](C(=O)O)N2C(=O)C[C@H]2S1(=O)=O [tazobactam, (2S,3S,5R)-3-methyl-7-oxo-3-(1H-1,2,3-triazol-1-ylmethyl)-4-thia-1-azabicyclo[3.2.0]heptane-2-carboxylic acid 4,4-dioxide]",–,–,potentiated the activity of ceftolozane
